pIC50: −log10 of the molar value.
Assays:
[1] = target: Proto-oncogene tyrosine-protein kinase receptor Ret (Homo sapiens) (UniProt P07949); assay: Inhibition of recombinant human GST/His6-tagged RET (658 to 1114 residues) expressed in baculovirus infected Sf9 insect cells at 1 uM using biotin as substrate preincubated for 5 mins followed by substrate addition and measured after 30 to 60 mins in presence of ATP by HTRF assay relative to control
[2] = target: Tyrosine-protein kinase Mer (Homo sapiens, UniProt Q12866); assay: Inhibition of recombinant human GST-tagged cMER (578 to 872 residues) expressed in baculovirus infected Sf21 insect cells using biotin as substrate preincubated for 5 mins followed by substrate addition and measured after 30 to 60 mins in presence of ATP by HTRF assay
[3] = AUC (0 to infinity) in Sprague-Dawley rat at 1.0 mg/kg, iv measured for 5 min to 72 hrs by LC-MS/MS analysis; type: ADME, organism-based; set-up: dose 1 mg/kg, time infinity, route intravenous; settings: in vivo
[4] = target: Serine/threonine-protein kinase PLK3 (Homo sapiens) (UniProt Q9H4B4); assay: (§1) Inhibition of recombinant full length human GST-tagged PLK3 expressed in baculovirus expression system at 1 uM using biotin as substrate preincubated for 5 mins followed by substrate addition and measured after 30 to 60 mins in presence of ATP by HTRF assay relative to control
[5] = target: Vascular endothelial growth factor receptor 1 (Homo sapiens) (UniProt P17948); assay: as §1, with “recombinant” for “recombinant full length”, “FLT1 catalytic domain (781 to 1338 residues)” for “PLK3”
[6] = Mean residence time in Sprague-Dawley rat at 5.0 mg/kg, ig measured for 15 min to 72 hrs by LC-MS/MS analysis; type: ADME, organism-based; settings: in vivo, po
in vitro = settings: human, liver microsomes
[7] = target: Tyrosine-protein kinase Fgr (Homo sapiens) (UniProt P09769); assay: (§2) Inhibition of recombinant full length human His-tagged FGR expressed in baculovirus expression system at 1 uM using biotin as substrate preincubated for 5 mins followed by substrate addition and measured after 30 to 60 mins in presence of ATP by HTRF assay relative to control
[8] = target: Vascular endothelial growth factor receptor 3 (Homo sapiens, UniProt P35916); assay: as §1, with “recombinant” for “recombinant full length”, “FLT4 catalytic domain (800 to 1297 residues)” for “PLK3”
[9] = target: Epidermal growth factor receptor (Homo sapiens) (UniProt P00533); assay: Inhibition of recombinant human GST-tagged EGFR (668 to 1210 residues) expressed in baculovirus expression system at 1 uM using biotin as substrate preincubated for 5 mins followed by substrate addition and measured after 30 to 60 mins in presence of ATP by HTRF assay relative to control
[10] = target: Dual specificity tyrosine-phosphorylation-regulated kinase 3 (Homo sapiens) (UniProt O43781); assay: Inhibition of recombinant human GST-tagged DYRK3 expressed in baculovirus system at 1 uM using biotin as substrate preincubated for 5 mins followed by substrate addition and measured after 30 to 60 mins in presence of ATP by HTRF assay relative to control
[11] = target: High affinity nerve growth factor receptor (Homo sapiens, UniProt P04629); assay: Inhibition of recombinant human His-tagged TRKA catalytic domain (441 to 796 residues) expressed in baculovirus expression system using biotin as substrate preincubated for 5 mins followed by substrate addition and measured after 30 to 60 mins in presence of ATP by HTRF assay
Chain of High affinity nerve growth factor receptor (P04629 whole entry, the tested form may be a part): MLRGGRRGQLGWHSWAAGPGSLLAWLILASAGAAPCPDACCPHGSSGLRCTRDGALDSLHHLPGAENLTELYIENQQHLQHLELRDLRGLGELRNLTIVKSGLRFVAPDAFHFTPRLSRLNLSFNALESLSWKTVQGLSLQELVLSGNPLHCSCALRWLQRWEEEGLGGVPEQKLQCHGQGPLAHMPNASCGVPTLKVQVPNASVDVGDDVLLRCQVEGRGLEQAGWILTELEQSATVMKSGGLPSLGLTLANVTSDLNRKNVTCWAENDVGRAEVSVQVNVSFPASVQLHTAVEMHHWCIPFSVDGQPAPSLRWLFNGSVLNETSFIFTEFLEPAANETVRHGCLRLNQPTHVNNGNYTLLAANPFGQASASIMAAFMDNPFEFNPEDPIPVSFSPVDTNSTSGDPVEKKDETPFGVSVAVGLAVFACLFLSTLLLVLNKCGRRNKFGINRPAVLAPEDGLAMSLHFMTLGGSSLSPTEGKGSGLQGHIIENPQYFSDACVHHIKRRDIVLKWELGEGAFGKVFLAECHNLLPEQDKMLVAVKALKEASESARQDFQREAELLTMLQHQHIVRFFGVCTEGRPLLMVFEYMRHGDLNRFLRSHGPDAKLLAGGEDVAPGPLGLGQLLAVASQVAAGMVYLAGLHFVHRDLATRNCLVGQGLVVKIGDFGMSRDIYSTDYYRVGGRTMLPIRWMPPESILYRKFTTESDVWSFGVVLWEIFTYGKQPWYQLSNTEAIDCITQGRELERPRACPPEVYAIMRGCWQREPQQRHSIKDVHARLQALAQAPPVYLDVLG

[12] = target: Mitogen-activated protein kinase 3 (Homo sapiens) (UniProt P27361); assay: Inhibition of recombinant full length human GST-tagged MAPK3 expressed in Escherichia coli at 1 uM using biotin as substrate preincubated for 5 mins followed by substrate addition and measured after 30 to 60 mins in presence of ATP by HTRF assay relative to control
[13] = Volume of distribution in Sprague-Dawley rat at 5.0 mg/kg, ig measured for 15 min to 72 hrs by LC-MS/MS analysis; type: ADME, organism-based; settings: in vivo, po
[14] = target: BDNF/NT-3 growth factors receptor (Homo sapiens, UniProt Q16620); assay: as §2, with “recombinant” for “recombinant full length”, “TRKB catalytic domain (526 to 838 residues)” for “FGR”
Chain of BDNF/NT-3 growth factors receptor (Q16620 32-822 limits assumed): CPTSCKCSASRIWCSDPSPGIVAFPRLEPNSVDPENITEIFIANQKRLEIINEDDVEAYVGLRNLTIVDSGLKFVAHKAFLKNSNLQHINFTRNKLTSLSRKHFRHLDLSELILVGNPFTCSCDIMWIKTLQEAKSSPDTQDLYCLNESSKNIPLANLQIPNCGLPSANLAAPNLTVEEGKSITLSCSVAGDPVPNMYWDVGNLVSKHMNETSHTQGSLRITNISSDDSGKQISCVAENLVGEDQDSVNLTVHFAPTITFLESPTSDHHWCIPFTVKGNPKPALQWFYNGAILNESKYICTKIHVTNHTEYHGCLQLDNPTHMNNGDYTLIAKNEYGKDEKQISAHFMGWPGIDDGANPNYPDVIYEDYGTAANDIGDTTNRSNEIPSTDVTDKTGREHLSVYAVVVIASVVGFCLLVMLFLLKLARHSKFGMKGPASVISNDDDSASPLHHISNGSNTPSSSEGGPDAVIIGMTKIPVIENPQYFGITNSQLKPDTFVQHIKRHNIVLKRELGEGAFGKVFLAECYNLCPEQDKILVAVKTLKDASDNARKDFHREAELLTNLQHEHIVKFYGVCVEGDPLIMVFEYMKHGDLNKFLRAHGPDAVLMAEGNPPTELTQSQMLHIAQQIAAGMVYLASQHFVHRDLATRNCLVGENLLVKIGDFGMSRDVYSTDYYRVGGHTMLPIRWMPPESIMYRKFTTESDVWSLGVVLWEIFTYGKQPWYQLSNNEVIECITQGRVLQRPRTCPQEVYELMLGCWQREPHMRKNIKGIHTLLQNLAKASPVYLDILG

Angiopoietin-1 receptor = Angiopoietin-1 receptor (Homo sapiens, UniProt Q02763); assay: Inhibition of recombinant human GST-tagged TEK (817 to 1101 residues) expressed in baculovirus expression system using biotin as substrate preincubated for 5 mins followed by substrate addition and measured after 30 to 60 mins in presence of ATP by HTRF assay
Chain of Angiopoietin-1 receptor (Q02763 whole entry, the tested form may be a part): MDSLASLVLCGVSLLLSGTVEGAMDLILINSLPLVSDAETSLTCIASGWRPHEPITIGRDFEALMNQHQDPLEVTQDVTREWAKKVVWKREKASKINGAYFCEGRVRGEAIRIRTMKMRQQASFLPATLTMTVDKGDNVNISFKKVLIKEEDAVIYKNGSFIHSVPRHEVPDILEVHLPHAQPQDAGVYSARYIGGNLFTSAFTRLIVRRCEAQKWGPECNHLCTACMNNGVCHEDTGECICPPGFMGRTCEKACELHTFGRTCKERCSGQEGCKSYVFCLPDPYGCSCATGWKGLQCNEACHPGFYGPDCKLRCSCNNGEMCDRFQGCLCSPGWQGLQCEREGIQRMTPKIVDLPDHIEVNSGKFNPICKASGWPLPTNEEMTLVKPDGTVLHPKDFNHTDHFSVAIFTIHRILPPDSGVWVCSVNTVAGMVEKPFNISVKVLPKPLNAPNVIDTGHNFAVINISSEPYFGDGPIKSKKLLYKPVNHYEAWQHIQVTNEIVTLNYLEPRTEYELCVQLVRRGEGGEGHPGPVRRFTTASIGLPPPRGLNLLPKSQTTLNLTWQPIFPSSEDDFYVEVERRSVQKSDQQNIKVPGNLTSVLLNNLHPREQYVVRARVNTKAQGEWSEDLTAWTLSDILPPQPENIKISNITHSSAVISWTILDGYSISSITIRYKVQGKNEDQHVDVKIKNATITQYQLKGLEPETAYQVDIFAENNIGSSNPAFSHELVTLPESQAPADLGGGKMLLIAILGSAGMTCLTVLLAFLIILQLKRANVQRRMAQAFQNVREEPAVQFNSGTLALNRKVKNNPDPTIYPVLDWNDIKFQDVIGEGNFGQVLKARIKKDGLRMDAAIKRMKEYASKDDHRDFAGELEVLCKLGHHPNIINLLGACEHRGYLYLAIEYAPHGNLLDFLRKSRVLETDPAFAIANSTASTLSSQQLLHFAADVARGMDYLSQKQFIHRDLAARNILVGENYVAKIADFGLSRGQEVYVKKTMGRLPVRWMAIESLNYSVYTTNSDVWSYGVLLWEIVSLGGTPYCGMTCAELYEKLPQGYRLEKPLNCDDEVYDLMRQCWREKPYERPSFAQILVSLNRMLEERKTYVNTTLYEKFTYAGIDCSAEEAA

[15] = target: Receptor-type tyrosine-protein kinase FLT3 (Homo sapiens) (UniProt P36888); assay: Inhibition of recombinant full length human His-tagged FLT3 expressed in baculovirus expression system at 1 uM using biotin as substrate preincubated for 5 mins followed by substrate addition and measured after 30 to 60 mins in presence of ATP by HTRF assay relative to control
[16] = target: Inhibitor of nuclear factor kappa-B kinase subunit beta (Homo sapiens) (UniProt O14920); assay: Inhibition of recombinant full length human GST-tagged IKBKB expressed in baculovirus expression system at 1 uM using biotin as substrate preincubated for 5 mins followed by substrate addition and measured after 30 to 60 mins in presence of ATP by HTRF assay relative to control
Chain of Inhibitor of nuclear factor kappa-B kinase subunit beta (Homo sapiens) (O14920 whole entry): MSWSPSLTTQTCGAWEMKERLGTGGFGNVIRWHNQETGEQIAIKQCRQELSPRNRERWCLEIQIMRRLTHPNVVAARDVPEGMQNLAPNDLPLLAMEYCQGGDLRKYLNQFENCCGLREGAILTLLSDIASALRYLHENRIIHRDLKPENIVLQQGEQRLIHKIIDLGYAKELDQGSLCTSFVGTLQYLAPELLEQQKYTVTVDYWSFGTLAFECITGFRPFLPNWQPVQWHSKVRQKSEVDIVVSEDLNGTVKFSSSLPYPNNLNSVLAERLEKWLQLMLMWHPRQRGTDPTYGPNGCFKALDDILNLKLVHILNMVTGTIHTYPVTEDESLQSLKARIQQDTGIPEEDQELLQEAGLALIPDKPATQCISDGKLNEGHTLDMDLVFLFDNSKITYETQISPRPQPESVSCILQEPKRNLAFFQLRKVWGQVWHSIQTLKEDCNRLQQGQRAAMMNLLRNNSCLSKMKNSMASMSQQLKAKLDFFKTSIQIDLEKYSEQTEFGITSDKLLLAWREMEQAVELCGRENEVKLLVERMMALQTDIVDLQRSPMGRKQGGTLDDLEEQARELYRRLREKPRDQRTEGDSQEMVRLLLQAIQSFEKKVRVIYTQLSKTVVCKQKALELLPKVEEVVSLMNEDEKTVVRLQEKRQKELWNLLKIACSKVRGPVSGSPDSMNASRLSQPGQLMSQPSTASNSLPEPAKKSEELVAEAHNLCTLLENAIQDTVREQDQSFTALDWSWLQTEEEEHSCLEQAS

[17] = target: Tyrosine-protein kinase Lck (Homo sapiens) (UniProt P06239); assay: Inhibition of recombinant full length human His-tagged LCK expressed in baculovirus expression system at 1 uM using biotin as substrate preincubated for 5 mins followed by substrate addition and measured after 30 to 60 mins in presence of ATP by HTRF assay relative to control
Chain of Tyrosine-protein kinase Lck (Homo sapiens) (P06239 2-509 limits assumed): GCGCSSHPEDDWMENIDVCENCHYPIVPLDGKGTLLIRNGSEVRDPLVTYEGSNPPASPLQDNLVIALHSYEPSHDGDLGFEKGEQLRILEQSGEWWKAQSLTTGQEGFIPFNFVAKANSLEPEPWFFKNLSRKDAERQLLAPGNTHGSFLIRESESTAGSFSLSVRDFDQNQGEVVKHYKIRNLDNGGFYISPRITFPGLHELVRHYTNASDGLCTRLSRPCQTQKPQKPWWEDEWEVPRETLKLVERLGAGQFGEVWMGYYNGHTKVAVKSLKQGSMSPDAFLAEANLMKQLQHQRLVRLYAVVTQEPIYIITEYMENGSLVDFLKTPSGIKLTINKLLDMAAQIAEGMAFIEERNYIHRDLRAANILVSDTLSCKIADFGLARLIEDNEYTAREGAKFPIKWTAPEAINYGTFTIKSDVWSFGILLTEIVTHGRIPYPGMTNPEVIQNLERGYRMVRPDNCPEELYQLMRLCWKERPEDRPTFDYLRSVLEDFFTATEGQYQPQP

[18] = target: Tyrosine-protein kinase receptor UFO (Homo sapiens) (UniProt P30530); assay: as §1, with “human N-terminal” for “human”, “AXL (473 to end residues)” for “PLK3”, “infected Sf21 insect cells” for “expression system”
[19] = target: Mitogen-activated protein kinase kinase kinase 20 (Homo sapiens) (UniProt Q9NYL2); assay: Inhibition of recombinant full length human GST-tagged ZAK expressed in baculovirus expression system at 1 uM using biotin as substrate preincubated for 5 mins followed by substrate addition and measured after 30 to 60 mins in presence of ATP by HTRF assay relative to control
[20] = target: Tyrosine-protein kinase ABL1 (Homo sapiens) (UniProt P00519); assay: Inhibition of recombinant full length human His-tagged ABL1 expressed in baculovirus expression system at 1 uM using biotin as substrate preincubated for 5 mins followed by substrate addition and measured after 30 to 60 mins in presence of ATP by HTRF assay relative to control
[21] = target: Dual specificity tyrosine-phosphorylation-regulated kinase 4 (Homo sapiens) (UniProt Q9NR20); assay: Inhibition of recombinant human GST-tagged DYRK4 expressed in baculovirus system at 1 uM using biotin as substrate preincubated for 5 mins followed by substrate addition and measured after 30 to 60 mins in presence of ATP by HTRF assay relative to control

Chain of Proto-oncogene tyrosine-protein kinase receptor Ret (Homo sapiens) (P07949 whole entry, the tested form may be a part): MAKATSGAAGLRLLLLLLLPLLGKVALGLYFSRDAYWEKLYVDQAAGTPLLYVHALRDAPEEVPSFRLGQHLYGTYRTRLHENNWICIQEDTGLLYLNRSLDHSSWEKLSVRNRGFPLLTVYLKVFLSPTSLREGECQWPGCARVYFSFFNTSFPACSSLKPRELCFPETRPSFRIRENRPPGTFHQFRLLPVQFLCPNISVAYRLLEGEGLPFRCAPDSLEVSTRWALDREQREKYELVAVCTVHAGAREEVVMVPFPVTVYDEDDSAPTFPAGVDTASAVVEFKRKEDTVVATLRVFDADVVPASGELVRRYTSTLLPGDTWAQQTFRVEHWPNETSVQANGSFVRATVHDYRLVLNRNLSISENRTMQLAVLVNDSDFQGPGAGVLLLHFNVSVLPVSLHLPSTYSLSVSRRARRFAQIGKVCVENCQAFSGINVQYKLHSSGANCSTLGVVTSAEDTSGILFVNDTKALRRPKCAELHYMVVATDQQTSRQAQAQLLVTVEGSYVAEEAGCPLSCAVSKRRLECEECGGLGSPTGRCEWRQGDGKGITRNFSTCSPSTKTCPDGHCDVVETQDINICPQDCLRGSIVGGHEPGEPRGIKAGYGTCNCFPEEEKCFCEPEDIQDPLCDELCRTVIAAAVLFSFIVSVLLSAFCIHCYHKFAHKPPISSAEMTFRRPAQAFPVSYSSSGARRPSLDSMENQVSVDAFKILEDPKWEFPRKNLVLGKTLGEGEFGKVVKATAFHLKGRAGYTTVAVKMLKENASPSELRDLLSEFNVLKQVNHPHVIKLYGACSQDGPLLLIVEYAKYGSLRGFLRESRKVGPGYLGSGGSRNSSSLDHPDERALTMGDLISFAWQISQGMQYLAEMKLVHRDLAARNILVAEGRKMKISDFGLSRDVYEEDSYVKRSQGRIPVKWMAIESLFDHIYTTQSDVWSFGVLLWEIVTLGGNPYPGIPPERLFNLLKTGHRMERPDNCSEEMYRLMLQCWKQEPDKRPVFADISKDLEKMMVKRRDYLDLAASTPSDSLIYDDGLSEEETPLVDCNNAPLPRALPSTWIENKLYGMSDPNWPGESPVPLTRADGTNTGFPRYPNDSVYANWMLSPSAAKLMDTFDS

Compound: Cn1cc(-c2ccc(F)cc2)c(=O)c2c(Nc3ccc(Oc4ccnc(NC(=O)C5CC5)c4)c(F)c3)nccc21
- inhibition [1]: < 50%
- pIC50 [2]: 8.38
- AUC(0-inf) [3]: 80600 ng·h/mL
- inhibition [4]: < 50%
- inhibition [5]: < 50%
- MRT [6]: 32.4 h
- half-life (in vitro): 14.7 h
- inhibition [7]: > 80%
- inhibition [8]: < 50%
- inhibition [9]: < 50%
- inhibition [10]: < 50%
- pIC50 [11]: 7.48
- inhibition [12]: < 50%
- Vd [13]: 0.6 L/kg
- inhibition [14]: > 80%
- pIC50 (Angiopoietin-1 receptor): 7.58
- inhibition [15]: > 80%
- inhibition [16]: < 50%
- inhibition [17]: 50 to 79%
- inhibition [18]: > 80%
- inhibition [19]: < 50%
- inhibition [20]: < 50%
- inhibition [21]: < 50%
